Experimental data from patent US10112945B2, “Fused quinoline compunds as PI3K, mTOR inhibitors” (ADVENCHEN PHARMACEUTICALS, NANJING LTD., priority 2014, dated 2018).

Key:
pi3K = test: In vitro kinase inhibition, pi3K (Millipore/Merck kinases panel screening); format: biochemical; settings: compound at 0.03 μM
Description: (§1) In vitro kinase inhibition activities included Pi3k and mTor activities can be tested with Millipore/Merck KGA of Europe in their kinases panel screening. Animal antitumor activity testing can be conducted by various cancer xenograft models for a compound of formula I.
(§2) The following compounds or a pharmaceutically acceptable salt thereof, but not limited, can also be prepared similarly according to the methods described in Scheme I-Scheme II. They are also tested for the inhibitions on mTor or pi3k kinases, or tumor cell lines.

mTor = target: T1, mTor (Homo sapiens, UniProt P42345); test: In vitro kinase inhibition, mTor (Millipore/Merck kinases panel screening); format: biochemical; settings: compound at 0.03 μM
T1 construct: purchased Millipore/Merck KGA
Description: as §1, §2

Compound	pi3K % activity @0.03 μM (pi3K; scaffold drawing 7 series) [%]	activity at 0.03 µM (mTor; scaffold drawing 7 series) [%]	other results
2-(4-methylpiperazin-1-yl)-N-(5-{16-[3-(trifluoromethyl)phenyl]-8,11,13,14,16-pentaazatetra-cyclo[8.6.0.0^2,7.0^11,15]hexadeca-1(10),2,4,6,8,12,14-heptaen-4-yl}pyridin-2-yl)acetamide	97		mTor % activity @0.03 μM (mTor; scaffold drawing 7 series): 46%
2-[(5-{16-[3-(trifluoromethyl)phenyl]-8,11,13,14,16-pentaazatetracyclo-[8.6.0.0^2,7.0^11,15]-hexadeca-1(10),2,4,6,8,12,14-heptaen-4-yl}pyridin-2-yl-amino]ethan-1-ol	96		mTor % activity @0.03 μM (mTor; scaffold drawing 7 series): 8%
12-ethyl-16-[4-fluoro-3 -(trifluoromethyl)phenyl]-4-8,11,13,14,16-pentaazatetracyclo[8.6.0.0^2,7.0^11,15]hexadeca-1(10),2,4,6,8,12,14-heptaene [3-pyridine, 4-F, CH2CH3]			mTor % activity @0.03 μM (mTor; scaffold drawing 7 series): 73%
CN(C)CC(=O)Nc1ccc(-c2ccc3ncc4c(c3c2)n(-c2cccc(C(F)(F)F)c2)c2nncn42)cn1 [2-(dimethylamino)-N-(5-{16-[3-(trifluoromethyl)phenyl]-8,11,13,14,16-pentaazatetracyclo-[8.6.0.0^2,7.0^11,15]hexadeca-1(10),2,4,6,8,12,14-heptaen-4-yl}pyridin-2-yl)acetamide]	89	7	
O=C(CN1CCOCC1)Nc1ccc(-c2ccc3ncc4c(c3c2)n(-c2cccc(C(F)(F)F)c2)c2nncn42)cn1 [2-(morpholin-4-yl)-N-(5-{16-[3-(trifluoromethyl)phenyl]-8,11,13,14,16-pentaazatetracyclo-[8.6.0.0^2,7.0^11,15]hexadeca-1(10),2,4,6,8,12,14-heptaen-4-yl}pyridin-2-yl)acetamide]	95	31	
Fc1ccccc1-c1ccc2ncc3c(c2c1)n(-c1ccc(Cl)c(C(F)(F)F)c1)c1nncn31 [2-Flurophenyl, 4-Cl, H, 16-[4-chloro-3-(trifluoromethyl)phenyl]-4-(2-fluorophenyl)-8,11,13,14,16-pentaazatetracyclo-[8.6.0.0^2,7.0^11,15]hexadeca-1(10),2,4,6,8,12,14-heptaene]		55	
OCCNc1ccc(-c2ccc3ncc4c(c3c2)n(-c2ccc(Cl)c(C(F)(F)F)c2)c2nncn42)cn1 [2-[(5-{16-[4-chloro-3-(trifluoromethyl)phenyl]-8,11,13,14,16-pentaazatetracyclo-[8.6.0.0^2,7.0^11,15]-hexadeca-1(10),2,4,6,8,12,14-heptaen-4-yl}pyridin-2-yl)amino]ethanol]	82	-4	
NCC(=O)Nc1ccc(-c2ccc3ncc4c(c3c2)n(-c2ccc(Cl)c(C(F)(F)F)c2)c2nncn42)cn1 [2-amino-N-(5-{16-[4-chloro-3-(trifluoromethyl)phenyl]-8,11,13,14,16-pentaazatetracyclo-[8.6.0.0^2,7.0^11,15]hexadeca-1(10),2,4,6,8,12,14-heptaen-4-yl}pyridin-2-yl)acetamide]	83	9	
Fc1ccc(-c2ccc3ncc4c(c3c2)n(-c2ccc(Cl)c(C(F)(F)F)c2)c2nncn42)cc1F [3,4-Diflurophenyl, 4-Cl, H, 16-[4-chloro-3-(trifluoromethyl)phenyl]-4-(3,4-difluorophenyl)-8,11,13,14,16-pentaazatetra-cyclo-[8.6.0.0^2,7.0^11,15]hexadeca-1(10),2,4,6,8,12,14-heptaene]			mTor % activity @0.03 μM (mTor; scaffold drawing 7 series): 31%
Fc1cccc(-c2ccc3ncc4c(c3c2)n(-c2ccc(Cl)c(C(F)(F)F)c2)c2nncn42)c1 [3-Flurophenyl, 4-Cl, H]			mTor % activity @0.03 μM (mTor; scaffold drawing 7 series): 46%
FC(F)(F)c1cc(-n2c3c4cc(-c5cccnc5)ccc4ncc3n3cnnc23)ccc1Cl [3-pyridine, 4-Cl, H, 16-[4-chloro-3-(trifluoromethyl)phenyl]-4-(pyridin-3-yl)-8,11,13,14,16-pentaazatetracyclo-[8.6.0.0^2,7.0^11,15]hexadeca-1(10),2,4,6,8,12,14-heptaene]	77	19	
FC(F)(F)c1cccc(-n2c3c4cc(-c5cccnc5)ccc4ncc3n3cnnc23)c1 [3-pyridine, H, H, 16-(3-(trifluoromethyl)phenyl)-4-(pyridin-3-yl)-8,11,13,14,16-pentaazatetracyclo-[8.6.0.0^2,7.0^11,15]hexadeca-1(10),2,4,6,8,12,14-heptaene]	70	0	
FC(F)(F)c1cc(-n2c3c4cc(-c5cnc6ccccc6c5)ccc4ncc3n3cnnc23)ccc1Cl [3-quinoline, 4-Cl, H, 16-[4-chloro-3-(trifluoromethyl)phenyl]-4-(quinolin-3-yl)-8,11,13,14,16-pentaazatetracyclo-[8.6.0.0^2,7.0^11,15]hexadeca-1(10),2,4,6,8,12,14-heptaene]	84	11	
FC(F)(F)c1cc(-n2c3c4cc(-c5cnc6ccccc6c5)ccc4ncc3n3cnnc23)cc(C(F)(F)F)c1 [3-quinoline, 5-CF3, H, 16-[3,5-(trifluoromethyl)phenyl]-4-(quinolin-3yl)-8,11,13,14,16-pentaazatetracyclo-[8.6.0.0^2,7.0^11,15]hexadeca-1(10),2,4,6,8,12,14-heptaene]			mTor % activity @0.03 μM (mTor; scaffold drawing 7 series): 0%
Fc1cc(-n2c3c4cc(-c5cnc6ccccc6c5)ccc4ncc3n3cnnc23)cc(C(F)(F)F)c1 [3-quinoline, 5-F, H, 16-[3-fluoro-5-(trifluoromethyl)phenyl]-4-(quinolin-3yl)-8,11,13,14,16-pentaazatetracyclo-[8.6.0.0^2,7.0^11,15]hexadeca-1(10),2,4,6,8,12,14-heptaene]		-8	
Fc1ccc(C(F)(F)F)cc1-n1c2c3cc(-c4cnc5ccccc5c4)ccc3ncc2n2cnnc12 [3-quinoline, 6-F, H, 16-[2-fluoro-5-(trifluoromethyl)phenyl]-4-(quinolin-3yl)-8,11,13,14,16-pentaazatetracyclo-[8.6.0.0^2,7.0^11,15]hexadeca-1(10),2,4,6,8,12,14-heptaene]		0	
FC(F)(F)c1cccc(-n2c3c4cc(-c5cnc6ccccc6c5)ccc4ncc3n3cnnc23)c1 [3-quinoline, H, H, 4-(quinolin-3yl)-16-[3-(trifluoromethyl)phenyl]-8,11,13,14,16-pentaazatetracyclo-[8.6.0.0^2,7.0^11,15]hexadeca-1(10),2,4,6,8,12,14-heptaene]	68	-5	
FC(F)(F)c1ccc(-n2c3c4cc(-c5cnc6ccccc6c5)ccc4ncc3n3cnnc23)cc1 [3-quinoline, H, H, 4-(quinolin-3yl)-16-[4-(trifluoromethyl)phenyl]-8,11,13,14,16-pentaazatetracyclo-[8.6.0.0^2,7.0^11,15]hexadeca-1(10),2,4,6,8,12,14-heptaene]			pi3K % activity @0.03 μM (pi3K; scaffold drawing 34 series): 99%; activity at 0.03 µM (mTor; scaffold drawing 34 series): 68%
Nc1ccc(-c2ccc3ncc4c(c3c2)n(-c2ccc(Cl)c(C(F)(F)F)c2)c2nncn42)cn1 [5-pyridin-2-amine, 4-Cl, H, 5-{16-[4-chloro-3-(trifluoromethyl)phenyl]-8,11,13,14,16-pentaazatetracyclo-[8.6.0.0^2,7.0^11,15]hexadeca-1(10),2,4,6,8,12,14-heptaen-4-yl}pyridin-2-amine]	38	-19	
COCCNc1ccc(-c2ccc3ncc4c(c3c2)n(-c2ccc(Cl)c(C(F)(F)F)c2)c2nncn42)cn1 [5-{16-[4-chloro-3-(trifluoromethyl)phenyl]-8,11,13,14,16-pentaazatetracyclo[8.6.0.0^2,7.0^11,15]-hexadeca-1(10),2,4,6,8,12,14-heptaen-4-yl}-N-(2-methoxyethyl)pyridin-2-amine]	87	-5	
CC(=O)Nc1ccc(-c2ccc3ncc4c(c3c2)n(-c2ccc(Cl)c(C(F)(F)F)c2)c2nncn42)cn1 [N-(5-pyridin-2-yl)acetamide, 4-Cl, H, N-(5-{16-[4-chloro-3-(trifluoromethyl)phenyl]-8,11,13,14,16-pentaazatetracyclo-[8.6.0.0^2,7.0^11,15]hexadeca-1(10),2,4,6,8,12,14-heptaen-4-yl}pyridin-2-yl)acetamide]		5	
O=C(CN1CCC(O)CC1)Nc1ccc(-c2ccc3ncc4c(c3c2)n(-c2ccc(Cl)c(C(F)(F)F)c2)c2nncn42)cn1 [N-(5-{16-[4-chloro-3-(trifluoromethyl)phenyl]-8,11,13,14,16-pentaazatetracyclo[8.6.0.0^2,7.0^11,15]-hexadeca-1(10),2,4,6,8,12,14-heptaen-4-yl}pyridin-2-yl)-2-(4-hydroxypiperidin-1-yl)acetamide]		14	
O=C1CCN(CC(=O)Nc2ccc(-c3ccc4ncc5c(c4c3)n(-c3ccc(Cl)c(C(F)(F)F)c3)c3nncn53)cn2)CC1 [N-(5-{16-[4-chloro-3-(trifluoromethyl)phenyl]-8,11,13,14,16-pentaazatetracyclo[8.6.0.0^2,7.0^11,15]-hexadeca-1(10),2,4,6,8,12,14-heptaen-4-yl}pyridin-2-yl)-2-(4-oxopiperidin-1-yl)acetamide]		57	
CN(C)CC(=O)Nc1ccc(-c2ccc3ncc4c(c3c2)n(-c2ccc(Cl)c(C(F)(F)F)c2)c2nncn42)cn1 [N-(5-{16-[4-chloro-3-(trifluoromethyl)phenyl]-8,11,13,14,16-pentaazatetracyclo[8.6.0.0^2,7.0^11,15]-hexadeca-1(10),2,4,6,8,12,14-heptaen-4-yl}pyridin-2-yl)-2-(dimethylamino)acetamide]		15	
